Tests used:
[1] = system: LNCaP cells stably transfected with the plasmid p22EDT1; assay: Trypan blue exclusion cell viability assay after 48 hours culture with 4-OHT (FIG. 3); assay type: cell-based, human; conditions: 4-OHT of varying concentrations
Description: FIG. 3. […] Parental LNCAP cells (blue) and LNCaP cells stably transfected with the plasmid p22EDT1 (red) were cultured in the presence of 4-OHT of varying concentrations for 48 hours after which the trypan blue exclusion assay was used to assess cell viability. p22EDT1 contains an SV40 promoter driving an FLP-ERt gene sequence and a CMV promoter driving a DT-A sequence disrupted by an FRT-puro/pA-FRT cassette.

[2] = system: PC-3 cells co-infected with the bcl2/FLP-ERt and RSV/FRT2puroDT-A containing adenoviruses; assay: In vitro test of gene therapy system: viable and clonogenic cell number after 4-OHT; assay type: cell-based, human; conditions: co-infected PC-3 cells, 4-OHT-treated versus non-treated cultures; 1, 2, 3 μM, 48 hours
Description: PC-3 cells are co-infected with the bcl2/FLP-ERt and RSV/FRT2puroDT-A containing adenoviruses. Cell death resulting from administration of the synthetic ligand 4-hydroxytamoxifen (4-OHT) is tested in cultured cells. Adenoviral infection is carried out by the addition of viral solutions of varying ratios of the two viruses and at varying degrees of multiplicity of infection to cell monolayers. After three hours of exposure to virus, the medium is changed and cells are incubated in fresh medium containing 4-OHT. Three concentrations of 4-OHT are tested: 1, 2, and 3 μM. After 48 hours incubation with 4-OHT, the number of viable cells are determined using the Trypan blue exclusion assay and the MTT assay (8). Since DT-A kills irreversibly by both apoptosis, as well as nonapoptotic pathways (39), the number of apoptotic cells is also determined. In addition, the growth potential of cells following treatment with tamoxifen is determined using a clonogenic assay (8).
In infected cells, the binding of 4-OHT to the FLP-ERt fusion protein will activate FLP. This in turn will result in recombinational excision of the FRT-puropA-FRT sequence, expression of the DT-A subunit, and cell death. […] Control infections are done with the RSV/FRT2puroDT-A virus alone and with the RSV/puro virus. […]

[3] = system: PC-3 xenografts; assay: In vivo test of gene therapy system: PC-3 xenograft tumor volume after 4-OHT; set-up: species or system male BALB/c nu/nu athymic mice
Description: To further test the efficacy of the regulated recombination system for targeting DT-A to bcl-2 expressing cells, xenografts are generated in male BALB/c nu/nu athymic mice by the subcutaneous injection of PC-3 cells (38,40,42). To generate tumors, […] are mixed with Matrigel basement membrane matrix and injected subcutaneously into the flank of a mouse (38). When tumors reach a volume of about 50 mm^3, a mixture of bcl2/FLP-ERt and RSV/FRT2puroDT-A containing virus is injected directly into the tumor site. A 1:1 ratio of the two viruses is maintained, while the total number of plaque forming units varies (10^9, 5×10^9, and 10^10). Twenty-four hours after injection of the virus, 4-OHT is administered to the host mice either by a single injection directly into the tumor (100 μl of a 3 μM solution in PBS) or by intraperitoneal injection on five consecutive days (1 mg in 100 μl sunflower seed oil). At one, two, and three weeks following the administration of 4-OHT, mice are euthanized, tumors are excised, and their volume and wet weight determined. Tumor volume is calculated by multiplying caliper measurements of length, width, and depth and then multiplying by 0.5236 (23). […] Tumors are fixed and processed for histopathological examination. Other control groups in this study are xenografts infected only with the RSV/FRT2puroDT-A virus and xenografts injected only with PBS.

4-hydroxytamoxifen [4-OHT]
cell viability (DTA expression and cell death) [1]: results in DTA expression and cell death
number of viable and clonogenic cells [2]: significantly reduced
tumor size ([3]; control xenografts infected only with the RSV/FRT2puroDT-A virus or injected only with PBS): no effect on tumor size
tumor volume ([3]; xenografts injected with 1:1 mixture of bcl2/FLP-ERt and RSV/FRT2puroDT-A virus, 4-OHT intratumoral or intraperitoneal, versus vehicle-treated control mice): significantly less
